The source of these data is patent US20090221624A1, “4-AMINOQUINOLINE COMPOUNDS FOR TREATING VIRUS-RELATED CONDITIONS” (priority 2005, published 2009).

Data set [1] relates to HCV replicon (Clone A cells, Huh7, subgenomic hepatits C virus RNA). Put plainly: HCV Neo screening assay (HCV replicon, NPTII ELISA). In kind it is cell-based, hepatitis C virus. The conditions noted are these: for inhibition at 25 µM / EC50: Hepatitis C virus, Huh-7; for inhibition at 25 µM: primary screening, 25 μM final concentration, 24 hours, percent inhibition of viral replication, read-out: HCV Inh; for EC50: Secondary Data, HCV; for HCV TI: therapeutic index CC50/EC50, HCV.

Data set [2] has as its system RSV minigenome. Put plainly: RSV minigenome-dependent β-galactosidase expression assay (RSV β-Gal). In kind it is cell-based, respiratory syncytial virus. The conditions noted are these: for EC50 / inhibition at 25 µM: human respiratory syncytial virus; for EC50: Secondary Data, RSV, read-out: RSV EC50; for inhibition at 25 µM: primary screening, 25 μM final concentration, 24 hours, percent inhibition of viral replication, read-out: RSV Inh; for RSV TI: therapeutic index CC50/EC50, RSV.

The subject of data set [3] is WNV (WN-hRuPac cells). Put plainly: WNV antiviral activity, WN-hRuPac cells, Renilla luciferase. The conditions noted are these: for EC50 / inhibition at 25 µM: West Nile virus; for EC50: Secondary Data, WNV, read-out: WNV EC50; for inhibition at 25 µM: primary screening, 25 μM final concentration, 24 hours, percent inhibition of viral replication, read-out: WNV Inh; for WNV TI: therapeutic index CC50/EC50, WNV. In kind it is cell-based, West Nile virus.

Data set [4] relates to YFV (YF-hRuPac cells). Put plainly: microbe, parasite or virus in culture. The conditions noted are these: for inhibition at 25 µM / EC50: Yellow fever virus; for inhibition at 25 µM: 24 h, read-out: YFV Inh; for EC50: read-out: YFV EC50. In kind it is cell-based, yellow fever virus.
The subject of data set [5] is DNG (D2-hRuPac cells). Put plainly: DNG antiviral activity, D2-hRuPac cells, Renilla luciferase. In kind it is cell-based, Dengue fever virus. The conditions noted are these: Dengue virus, secondary screening.
For data set [6], the system named is EBOV minigenome. Put plainly: microbe, parasite or virus in culture. In kind it is cell-based, Ebola virus. Particulars: Zaire ebolavirus; for inhibition at 25 µM: 24 h, read-out: EBOV Inh; for EC50: read-out: EBOV EC50.
The test system of data set [7] is SINV (SR19-F-luc cells). Put plainly: SINV antiviral activity, SR19-F-luc cells, Firefly luciferase. In kind it is cell-based. Particulars: Sindbis virus; for inhibition at 25 µM: primary screening, 25 μM final concentration, 24 hours, percent inhibition of viral replication, read-out: SINV Inh; for EC50: secondary screening, SR19-F-luc cells.
Data set [8] in a line: in vitro.

In the case of `CCOC(=O)c1cnc2c(C)cccc2c1NCc1ccco1` [Compound 46], the inhibition at 25 µM in data set [1] is 15%; in data set [2], 94.7%; in data set [3] it was 103%; in data set [4], 97.7%; in data set [6], 90%; in data set [7] it was -16.9%. In addition, the EC50 in data set [2] came to 1.31 µM; in data set [3] it was 2.96 µM; in data set [4], 3.54 µM; in data set [5] it was 10.2 µM; in data set [6], 7.92 µM; in data set [7], 49.7 µM. Besides, the “RSV TI” value in data set [2] worked out at 37.48. For the same compound, in data set [3], the “WNV TI” value was 16.59. Besides, the “YFV TI” value in data set [4] turned out to be 13.87. In addition, the CC50 in data set [8] (DNG CC50), in data set [8] (EBOV CC50), in data set [8] (RSV CC50), in data set [8] (SINV CC50), in data set [8] (WNV CC50) and in data set [8] (YFV CC50) was 49.1 µM in each case.

Turning to `Cc1cc(Nc2ccc(C)c(C)c2)c2cc(Cl)ccc2n1` [Compound 47], the EC50 in data set [1] came out at 11 µM; in data set [2] it was 3.96 µM; in data set [3], 8.66 µM; in data set [4] it was 19.6 µM; in data set [5], 39.4 µM; in data set [6], 75 µM. In data set [7], this compound returned an EC50 of 7.23 µM. The inhibition at 25 µM in data set [1] came to 149%; in data set [2], 96.4%; in data set [3], 73%; in data set [4], 77.7%; in data set [6] it was 49.5%; in data set [7], 61.4%. Also, the “HCV TI” value in data set [1] is reported as 0.71. The “RSV TI” value in data set [2] was found to be 14.14. Further, the “WNV TI” value in data set [3] is on record as 6.47. Moreover, the “YFV TI” value in data set [4] is 2.86. Moreover, the CC50 in data set [8] (DNG CC50) came to 56 µM; in data set [8] (EBOV CC50) it was 56 µM; in data set [8] (HCV CC50), 7.84 µM; in data set [8] (RSV CC50) it was 56 µM; in data set [8] (SINV CC50), 56 µM; in data set [8] (WNV CC50), 56 µM. In data set [8] (YFV CC50), this compound came in with a CC50 of 56 µM.

In the case of `CC(=O)c1cccc(Nc2cc(C)nc3c(C)cc(C)cc23)c1` [Compound 48], the concentration giving a half-maximal response (EC50) is 10 µM in data set [1]; 8.32 µM in data set [2]; 21.3 µM in data set [3]; 15.9 µM in data set [4]; 10.5 µM in data set [5]; 26.4 µM in data set [6]. The same compound gave an EC50 in data set [7] of 2.47 µM. For the same compound, the inhibition at 25 µM was 151% in data set [1]; 78% in data set [2]; 58.5% in data set [3]; 62.1% in data set [4]; 29.4% in data set [6]; 70.3% in data set [7]. Moreover, the “HCV TI” value in data set [1] was determined as 1.41. Moreover, in data set [2], the “RSV TI” value is listed as 3.08. Further, the “WNV TI” value in data set [3] came to 1.2. The “YFV TI” value in data set [4] stood at 1.61. Moreover, the CC50 in data set [8] (DNG CC50) was 25.6 µM; in data set [8] (EBOV CC50), 25.6 µM; in data set [8] (HCV CC50), 14.1 µM; in data set [8] (RSV CC50) it was 25.6 µM; in data set [8] (SINV CC50), 25.6 µM; in data set [8] (WNV CC50), 25.6 µM. The compound further registered a CC50 in data set [8] (YFV CC50) of 25.6 µM.

As to `Cc1cc(C)c2nc(C)cc(Nc3ccc(O)cc3)c2c1` [Compound 49], the EC50 amounted to 11.1 µM in data set [1]; 4.39 µM in data set [2]; 5.58 µM in data set [3]; 11 µM in data set [4]; 13.2 µM in data set [5]; 6.88 µM in data set [6]. Moreover, the EC50 in data set [7] was no less than 75 µM. The inhibition at 25 µM in data set [1] worked out at 113%; in data set [2] it was 90.2%; in data set [3], 66.4%; in data set [4], 66.5%; in data set [6] it was 69.9%; in data set [7], 72.5%. Also, the “HCV TI” value in data set [1] stood at 1.47. In addition, the “RSV TI” value in data set [2] came out at 8.94. Also, the “WNV TI” value in data set [3] worked out at 7.04. Also, the “YFV TI” value in data set [4] worked out at 3.57. Also, the CC50 was determined as 39.3 µM in data set [8] (DNG CC50); 39.3 µM in data set [8] (EBOV CC50); 16.3 µM in data set [8] (HCV CC50); 39.3 µM in data set [8] (RSV CC50); 39.3 µM in data set [8] (SINV CC50); 39.3 µM in data set [8] (WNV CC50). In data set [8] (YFV CC50), this compound had a CC50 of 39.3 µM.

`CCOC(=O)c1ccc2nc(C)cc(Nc3ccc(C)cc3C)c2c1` [Compound 51]: the EC50 in data set [1] was 11.3 µM; in data set [2] it was 3.72 µM; in data set [3], 16 µM; in data set [4], 15.5 µM; in data set [5], 61 µM; in data set [6], 52.6 µM. Also, a half-maximal effect in data set [7] (EC50) was put at 13.7 µM. Moreover, the inhibition at 25 µM in data set [1] turned out to be 55.5%; in data set [2], 75.5%; in data set [3], 49%; in data set [4], 41.8%; in data set [6], 33.7%; in data set [7] it was 51.9%. Moreover, in data set [1], the “HCV TI” value amounted to 1.89. For the same compound, the “RSV TI” value in data set [2] is recorded as 15.07. The “WNV TI” value in data set [3] was found to be 3.5. The “YFV TI” value in data set [4] stood at 3.62. Moreover, the CC50 is 56.1 µM in data set [8] (DNG CC50); 56.1 µM in data set [8] (EBOV CC50); 21.4 µM in data set [8] (HCV CC50); 56.1 µM in data set [8] (RSV CC50); 56.1 µM in data set [8] (SINV CC50); 56.1 µM in data set [8] (WNV CC50). In addition, the CC50 in data set [8] (YFV CC50) was found to be 56.1 µM.

On to `CCOC(=O)c1cnc2c(Cl)cc(Cl)cc2c1NCc1ccco1` [Compound 52], for which the concentration giving a half-maximal response (EC50) in data set [1] was determined as 12.5 µM; in data set [2], 2.51 µM; in data set [3], 10.8 µM; in data set [4], 4.99 µM; in data set [5], 15.8 µM; in data set [6], 13.2 µM. Besides, the EC50 in data set [7] is 24.8 µM. In addition, the inhibition at 25 µM in data set [1] came to 76.5%; in data set [2], 99.1%; in data set [3], 88.9%; in data set [4], 90%; in data set [6] it was 76.9%; in data set [7], 10.2%. Also, the “HCV TI” value in data set [1] worked out at 5.62. Further, the “RSV TI” value in data set [2] came to 17.57. Also, the “WNV TI” value in data set [3] came to 4.08. In addition, in data set [4], the “YFV TI” value was determined as 8.84. Further, the CC50 amounted to 44.1 µM in data set [8] (DNG CC50); 44.1 µM in data set [8] (EBOV CC50); 70.2 µM in data set [8] (HCV CC50); 44.1 µM in data set [8] (RSV CC50); 44.1 µM in data set [8] (SINV CC50); 44.1 µM in data set [8] (WNV CC50). This compound displayed a CC50 in data set [8] (YFV CC50) of 44.1 µM.

Regarding `Cc1cc(C)c2nc(C)cc(Nc3ccc(Cl)c(Cl)c3)c2c1` [Compound 53], the EC50 in data set [1] turned out to be 4.78 µM; in data set [2] it was 3.78 µM; in data set [3] it was 20.9 µM; in data set [4], 6.47 µM; in data set [5] it was 28.7 µM; in data set [6] it was 75 µM. In data set [7], this compound returned an EC50 of 6.69 µM. Besides, the inhibition at 25 µM in data set [1] stood at 150%; in data set [2], 100%; in data set [3], 91.9%; in data set [4], 79.9%; in data set [6], 75.6%; in data set [7], 88.1%. Besides, the “HCV TI” value in data set [1] is 1.74. In data set [2], the “RSV TI” value is listed as 13. Also, the “WNV TI” value in data set [3] is 2.35. Besides, the “YFV TI” value in data set [4] is recorded as 7.6. The CC50 came out at 49.1 µM in data set [8] (DNG CC50); 49.1 µM in data set [8] (EBOV CC50); 8.3 µM in data set [8] (HCV CC50); 49.1 µM in data set [8] (RSV CC50); 49.1 µM in data set [8] (SINV CC50); 49.1 µM in data set [8] (WNV CC50). In data set [8] (YFV CC50), this compound yielded a CC50 of 49.1 µM.

As to `Cc1cc(C)c2nc(C)cc(NCc3ccco3)c2c1` [Compound 54], the EC50 turned out to be 26 µM in data set [1]; 5.8 µM in data set [2]; 6.91 µM in data set [3]; 4.14 µM in data set [4]; 21.9 µM in data set [5]; 75 µM in data set [6]. In data set [7], this compound came in with an EC50 of 38.3 µM. Also, the inhibition at 25 µM turned out to be 101% in data set [1]; 87.9% in data set [2]; 84.4% in data set [3]; 91.1% in data set [4]; 38.4% in data set [6]; 47.8% in data set [7]. Further, in data set [1], the “HCV TI” value was 0.92. In addition, the “RSV TI” value in data set [2] is reported as 8.66. The “WNV TI” value in data set [3] was 7.26. Further, the “YFV TI” value in data set [4] was 12.13. Further, the CC50 in data set [8] (DNG CC50) worked out at 50.2 µM; in data set [8] (EBOV CC50), 50.2 µM; in data set [8] (HCV CC50), 23.9 µM; in data set [8] (RSV CC50), 50.2 µM; in data set [8] (SINV CC50), 50.2 µM; in data set [8] (WNV CC50), 50.2 µM. In addition, in data set [8] (YFV CC50), the CC50 is 50.2 µM.

As a reminder, the EC50 is the concentration needed to bring the measured effect to its halfway point.
